Results as given in publication PMC10063231, “Human thymopoiesis produces polyspecific CD8^+ α/β T cells responding to multiple viral antigens” (eLife, 2023).

Test system: TCR identified as responding to the VMNILLQYV peptide (GAD 114-122 TCR)
Assay: Response of a cloned GAD 114-122-reactive TCR in the reporter cell line to cognate and unrelated peptides
Type: cell-based, human
Conditions: cognate peptide versus structurally unrelated peptide, Figure 5D

Sequence | Response of GAD 114-122 TCR in reporter cell line
SLYNPAIVYA [peptide from human chondroitin sulfate N-acetylgalactosaminyltransferase 2] | responded even better
VMNILLQYV [peptide from the Glutamic Acid Decarboxylase protein] | responding
